The source of these data is patent publication US11492325B2, “Compounds as inhibitors of sodium channels” (Human BioMolecular Research Institute, priority 2016, dated 2022).

Series [1] concerns Male BALBc mice. To be noted: mice, 100 mg/kg; for behavioral effects at 100 mg/kg: enantiomers. An excerpt:
Male BALBc mice (20-22 g) were used throughout these studies. The animals were maintained in a temperature-controlled room with 12-hr periods of light and darkness and had continuous access to water and animal food. […] Groups contained 2-4 animals.

A short description of series [2]: Metabolic stability in human liver microsomes. Format: in vitro ADME. To be noted: human, microsomes. Here is the method:
(§1) A typical incubation contained rat, mouse, dog or human liver microsomes (0.4-0.5 mg of protein), 100 mM potassium phosphate buffer (pH7.4), 50 μM test compound, an NADPH-generating system consisting of 0.5 mM NADP^+, 0.5 mM glucose-6-phosphate, 1 IU/mL glucose-6-phosphate dehydrogenase, 1 mg/mL diethylenetriaminepentaaceticacid (DETAPAC), and 3 mM MgCl2 in a final incubation volume of 0.25 mL. […] After centrifugation at 3000 rpm for 5 min, the organic fraction was collected, the solvent was removed with a stream of argon and the residue was reconstituted in 125 μL of MeOH and 125 μL H2O, mixed thoroughly, centrifuged at 13,000 rpm for 5 min and analyzed by high performance liquid chromatography. Samples were run on a Hitachi D-7000 HPLC system using a L-7100 analytical pump, L-7400 UV-Visible variable wavelength detector, and L-7600 automatic sample injector. […] Disappearance of the analyte was monitored over time. A plot of the area under the curve for the normalized analyte versus time afforded the half-life values and kapp.
Background: Microsomes from liver hold many membrane-bound enzymes, among them those of drug oxidation.

Series [3] is described as follows: Metabolism in human hepatic S9. The note with it: human; for Liver S-9, remaining after 1 hr: s9, 1 h; for Liver S-9 T1/2: s9. The method, then: as §1
Microsomes contain CYPs and FMO metabolic enzymes. S9 contains soluble enzymes (i.e., aldehyde oxidase, MAO, etc.).

Series [4] relates to normal human induced pluripotent stem cell (hiPSC) cardiomyocyte. Nature of the series: cells. The note with it: read-out: WT-EC50 (μM) Prolongation.
In series [5] the test system is cardiomyocytes derived from hiPSCs from a LQTS3 patient. The note with it: for LQT-EC50 (μM) Shortening: AP shortening; for LQT-3 shortening (in words): LQT-3 cells.
Series [6] is described as follows: Chemical stability in PBS buffer at pH 7.4 or 3.0, 37° C. Format: physicochemical. The note with it: 1% Ethanol. The method, then:
A typical incubation contained 100 μM of the test compound prepared in PBS buffer (pH 7.4 or 3.0, 50 mM) with 1% Ethanol. The test compounds were incubated at 37° C. An aliquot from incubations was taken at various times and injected onto an RP-HPLC system as described above. Disappearance of the analyte was monitored over time.

Series [7] relates to normal human induced pluripotent stem cell (hiPSC) cardiomyocyte. To be noted: for WT-Cessation Dose (μM): WT cardiomyocytes, cessation of beating.
The subject of series [8] is cardiomyocytes derived from hiPSCs from a LQTS3 patient. Put plainly: cells. The note with it: Homo sapiens, Cardiomyocyte.
The mark [9] stands for this setting: pH 3, 100 μM in PBS, read-out: Half-Life @ pH 3.0 and 37° C.
The mark [10] stands for this setting: pH 7.4, 100 μM in PBS, read-out: Half-Life @ pH 7.4 and 37° C.
The mark [11] stands for this setting: read-out: LQT-EC50 (μM) Shortening, LQT-3 cardiomyocytes, AP shortening.

As a reminder, the EC50 is the concentration at which the effect is half-maximal. Usually half-life stands for the time in which the quantity being followed falls by half.

SMILES strings stand for the structures. Like-named read-outs stand apart in the source and are kept apart here. Some results are limits rather than exact numbers.

Turning to `Cl.NC(COc1ccccc1C(F)(F)F)c1ccccc1` (stereo in doubt) [(S)-82], in series [1], the “Behavior Effect (S)-enantiomer” value is reported as 2/4 slightly lethargic and the “behavioral effects at 100 mg/kg” value is reported as “Minor lethargy”. The “Liver Microsomes T1/2” value in series [2] was 0.253 days. Besides, in series [3], the “Liver S-9, remaining after 1 hr” value is more than 95% after 1 hr.
Take `Cc1cncc(OCC(N)c2ccccc2)c1` (stereo not shown) [Compound 113]: the 50% effective concentration (EC50) in series [4] was 7.24 µM. Besides, in series [5] (LQT-3 cardiomyocytes), the “LQT-Fold Shortening” value was “Does Not Shorten”, the “LQT-Shortening Dose (μM)” value is reported as “Does Not Shorten” and the “LQT-EC50 (μM) Shortening” value is recorded as “Does Not Shorten”.
For the molecule `Cc1cc(C)cc(OCC(N)c2ccccc2)c1.Cl` (stereo in doubt) [(R)-70], in series [1], the “Behavior Effect (R)-enantiomer” value is given as “No detectable effect” and the “behavioral effects at 100 mg/kg” value was “no apparent behavioral effects”. Also, the “Liver Microsomes T1/2” value in series [2] is 0.282 days. Also, the “Liver S-9 T1/2” value in series [3] worked out at 0.7049 days.
Consider `Cc1cc(C)cc(OCC(N)c2ccccc2)c1` (stereo not shown) [drawing 309], for which the half-life at 100 μM in series [6] (setting [9]) and in series [6] (setting [10]) was more than 30 days each time.
Take `Cl.NC(COc1cc(C(F)(F)F)cc(C(F)(F)F)c1)c1ccccc1` (stereo in doubt) [(R)-78]: in series [1], the “Behavior Effect (R)-enantiomer” value is recorded as “No detectable effect” and the “behavioral effects at 100 mg/kg” value is reported as “no apparent behavioral effects”. Further, the “Liver Microsomes, remaining after 1 hr” value in series [2] was more than 95% after 1 hr. In series [3], the “Liver S-9, remaining after 1 hr” value is more than 95% after 1 hr.
As to `NC(COc1cnccc1C(F)(F)F)c1ccccc1` (stereo not shown) [Compound 115], the EC50 in series [4] was found to be 25.7 µM. For the same molecule, the “WT-Cessation Dose (μM)” value in series [7] was “No cessation of beating”. Besides, in series [5] (LQT-3 cardiomyocytes), the “LQT-Fold Shortening” value is on record as “Does Not Shorten”, the “LQT-Shortening Dose (μM)” value is listed as “Does Not Shorten” and the “LQT-EC50 (μM) Shortening” value is reported as “Does Not Shorten”.
Take `Cc1ccccc1OCC(N)c1ccccc1` (stereo not shown) [drawing 311]: the half-life at 100 μM in series [6] (setting [9]) was more than 15 days.
In the case of `NC(COc1cc(C(F)(F)F)cc(C(F)(F)F)c1)c1ccccc1` (stereo not shown) [drawing 310], the half-life at 100 μM in series [6] (setting [9]) was more than 30 days; in series [6] (setting [10]), 30 days.
With `Cc1ccnc(C)c1OCC(N)c1ccccc1` (stereo not shown) [Compound 118], in series [4], the EC50 was 8.22 µM. Also, in series [7], the “WT-Cessation Dose (μM)” value is given as “No cessation of beating”. For the same molecule, in series [5] (LQT-3 cardiomyocytes), the “LQT-Fold Shortening” value is on record as “Does Not Shorten”, the “LQT-Shortening Dose (μM)” value is listed as “Does Not Shorten” and the “LQT-EC50 (μM) Shortening” value is on record as “Does Not Shorten”.
In the case of `Cc1cccnc1OCC(N)c1ccccc1` (stereo not shown) [Compound 94, 2-((3-methylpyridin-2-yl)oxy)-1-phenylethan-1-amine], the EC50 in series [4] came to 18.5 µM. Moreover, in series [7] (normal hiPSC cardiomyocytes), the “Cessation of Beating” value is “None” and the “WT-EAD Dose” value stood at 133 µM. The “WT-Cessation Dose” value in series [7] (pyridyl derivatives) is recorded as “No cessation of beatimg”. Also, the EC50 in series [8] (read-out: LQT-EC50 (μM) Shortening, pyridyl derivatives) was 12.8 µM.
As for `Cc1ccncc1OCC(N)c1ccccc1` (stereo not shown) [Compound 112], in series [4], the EC50 is 19.4 µM. Also, the “WT-Cessation Dose (μM)” value in series [7] was “No cessation of beating”. Besides, in series [5] (LQT-3 cardiomyocytes), the “LQT-Fold Shortening” value is “Does Not Shorten”, the “LQT-Shortening Dose (μM)” value is listed as “Does Not Shorten” and the “LQT-EC50 (μM) Shortening” value is given as “Does Not Shorten”.
On to `NC(COc1ccccc1C(F)(F)F)c1ccccc1` (stereo not shown) [drawing 312], for which the half-life at 100 μM in series [6] (setting [9]) is more than 15 days; in series [6] (setting [10]) it was more than 30 days.
With `NC(COc1ccccc1C(F)(F)F)c1ccc2ccccc2c1` (stereo not shown) [Compound 134], the EC50 in series [4] came to 24.4 µM; in series [8] (setting [11]) it was 1.79 µM. For the same molecule, the “prolongation effects in wild type cells” value in series [7] (wild type cells) is “some prolongation effects”. For the same molecule, in series [5] (LQT-3 cardiomyocytes), the “LQT-Fold Shortening” value is on record as 1.515. Also, the “LQT-Cessation Dose (μM)” value in series [5] (LQT-3 cardiomyocytes, cessation of beating) was “No cessation of beating”. Also, in series [5], the “LQT-3 shortening (in words)” value is reported as “highly potent”. Also, in series [5] (at the concentrations examined, cells not specified), the “cessation of beating (in words)” value is reported as “did not induce cessation of beating”.
Take `COCCNC(COc1cccnc1)c1ccccc1` (stereo not shown) [Compound 121]: the EC50 in series [4] was 25.4 µM; in series [8] (setting [11]) it was 2.58 µM. For the same molecule, the “WT-Cessation Dose (μM)” value in series [7] is on record as “No cessation of beating”. In addition, the “LQT-Fold Shortening” value in series [5] (LQT-3 cardiomyocytes) turned out to be 1.144. The “LQT-3 shortening (in words)” value in series [5] is “moderate shortening”.
Take `Cl.NC(COc1cc(C(F)(F)F)cc(C(F)(F)F)c1)c1ccccc1` (stereo in doubt) [(S)-78]: in series [1], the “Behavior Effect (S)-enantiomer” value is reported as 2/4 shaking and the “behavioral effects at 100 mg/kg” value is given as “Minor lethargy”. Also, the “Liver Microsomes, remaining after 1 hr” value in series [2] is on record as more than 95% after 1 hr. Also, the “Liver S-9 T1/2” value in series [3] was determined as 0.7222 days.
Turning to `Cc1cc(C)c(OCC(N)c2ccccc2)cn1` (stereo not shown) [Compound 120], the EC50 in series [4] worked out at 7.33 µM. Further, the “WT-Cessation Dose (μM)” value in series [7] was “No cessation of beating”. In series [5] (LQT-3 cardiomyocytes), the “LQT-Fold Shortening” value is reported as “Does Not Shorten”, the “LQT-Shortening Dose (μM)” value is given as “Does Not Shorten” and the “LQT-EC50 (μM) Shortening” value is listed as “Does Not Shorten”.
For the molecule `Cc1cc(C)cc(OCC(N)c2ccccc2)c1.Cl` (stereo in doubt) [(S)-70], in series [1], the “Behavior Effect (S)-enantiomer” value is on record as 2/4 lethargic and the “behavioral effects at 100 mg/kg” value is listed as “Minor lethargy”. Moreover, in series [2], the “Liver Microsomes, remaining after 1 hr” value is reported as more than 95% after 1 hr. In addition, in series [3], the “Liver S-9, remaining after 1 hr” value is more than 95% after 1 hr.
In the case of `COCCNC(COc1ccncc1)c1ccccc1` (stereo not shown) [Compound 127], in series [4], the EC50 came out at 97.7 µM. The “WT-Cessation Dose (μM)” value in series [7] was “No cessation of beating”. Also, in series [5] (LQT-3 cardiomyocytes), the “LQT-Fold Shortening” value is “Does Not Shorten”, the “LQT-Shortening Dose (μM)” value is “Does Not Shorten” and the “LQT-EC50 (μM) Shortening” value is on record as “Does Not Shorten”.
